Source: the supplement of paper PMC10307832

Tests used:
Assay in all cases: relative viability (nuclei count vs DMSO), 5 days (fraction); higher = more cells survive
LOU-NH91 = test system: LOU-NH91
How it was run: (§1)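 Medians of duplicate plates are given as relative viability. That measure is the nuclei count in treated wells divided by the count in vehicle wells. Counts were taken on 4× images of lung cancer cell lines in 1536-well plates, 5 days after pin-tool dosing the day after seeding with one drug alone or a fixed anchor-drug dose plus five library-drug doses (not always all listed) in √10 steps.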

NCI-H3122 = test system: NCI-H3122
How it was run: as §1

NCI-H2085 = test system: NCI-H2085
How it was run: as §1

NCI-H1437 = test system: NCI-H1437
How it was run: as §1

LXF-289 = test system: LXF-289
How it was run: as §1

HCC-44 = test system: HCC-44
How it was run: as §1

NCI-H1623 = test system: NCI-H1623
How it was run: as §1

HCC-366 = test system: HCC-366
How it was run: as §1

Which relative viability (LOU-NH91; first compound 0.005 µM) does the source give for `Nc1ccn([C@@H]2O[C@H](CO)[C@@H](O)[C@@H]2O)c(=O)n1` [Cytarabine] + CCNC(=O)c1noc(-c2cc(C(C)C)c(O)cc2O)c1-c1ccc(CN2CCOCC2)cc1 [Luminespib] (partner 0.01 µM) here?
Its relative viability is 0.362.

And the relative viability (LOU-NH91; first compound 0.01581 µM)?
Its relative viability is 0.361.

What about the relative viability (LOU-NH91; first compound 0.05 µM) of the same compound?
The relative viability was 0.321.

What about the relative viability (LOU-NH91; first compound 0.1581 µM) of the same compound?
Its relative viability is 0.316.

And the relative viability (LOU-NH91; first compound 0.5 µM)?
The relative viability was 0.317.

And the relative viability (NCI-H3122; first compound 0.005 µM)?
The relative viability was 0.0849.

And the relative viability (NCI-H3122; first compound 0.01581 µM)?
Its relative viability is 0.0661.

And the relative viability (NCI-H3122; first compound 0.05 µM)?
Its relative viability is 0.0881.

And the relative viability (NCI-H3122; first compound 0.1581 µM)?
The relative viability was 0.0776.

And the relative viability (NCI-H3122; first compound 0.5 µM)?
Its relative viability is 0.0754.

And the relative viability (NCI-H2085; first compound 0.005 µM)?
The relative viability was 0.426.

And the relative viability (NCI-H2085; first compound 0.01581 µM)?
Its relative viability is 0.459.

What about the relative viability (NCI-H2085; first compound 0.05 µM) of the same compound?
Its relative viability is 0.455.

And the relative viability (NCI-H2085; first compound 0.1581 µM)?
The relative viability was 0.415.

What about the relative viability (NCI-H2085; first compound 0.5 µM) of the same compound?
Its relative viability is 0.339.

And the relative viability (NCI-H1437; first compound 0.005 µM)?
The relative viability was 0.86.

And the relative viability (NCI-H1437; first compound 0.01581 µM)?
The relative viability was 0.852.

What about the relative viability (NCI-H1437; first compound 0.05 µM) of the same compound?
Its relative viability is 0.571.

And the relative viability (NCI-H1437; first compound 0.1581 µM)?
The relative viability was 0.301.

And the relative viability (NCI-H1437; first compound 0.5 µM)?
The relative viability was 0.23.

And the relative viability (LXF-289; first compound 0.005 µM)?
Its relative viability is 0.673.

And the relative viability (LXF-289; first compound 0.01581 µM)?
Its relative viability is 0.665.

And the relative viability (LXF-289; first compound 0.05 µM)?
The relative viability was 0.43.

What about the relative viability (LXF-289; first compound 0.1581 µM) of the same compound?
The relative viability was 0.266.

What about the relative viability (LXF-289; first compound 0.5 µM) of the same compound?
The relative viability was 0.149.

What about the relative viability (HCC-44; first compound 0.005 µM) of the same compound?
Its relative viability is 0.949.

What about the relative viability (HCC-44; first compound 0.01581 µM) of the same compound?
Its relative viability is 1.05.

What about the relative viability (HCC-44; first compound 0.05 µM) of the same compound?
Its relative viability is 0.403.

What about the relative viability (HCC-44; first compound 0.1581 µM) of the same compound?
Its relative viability is 0.257.

And the relative viability (HCC-44; first compound 0.5 µM)?
The relative viability was 0.185.

What about the relative viability (NCI-H1623; first compound 0.005 µM) of the same compound?
Its relative viability is 0.321.

What about the relative viability (NCI-H1623; first compound 0.01581 µM) of the same compound?
The relative viability was 0.361.

And the relative viability (NCI-H1623; first compound 0.05 µM)?
The relative viability was 0.316.

And the relative viability (NCI-H1623; first compound 0.1581 µM)?
Its relative viability is 0.232.

What about the relative viability (NCI-H1623; first compound 0.5 µM) of the same compound?
The relative viability was 0.234.

What does the source list for `Nc1ccn([C@@H]2O[C@H](CO)[C@@H](O)[C@@H]2O)c(=O)n1` [Cytarabine] + Cc1nc(Nc2ncc(C(=O)Nc3c(C)cccc3Cl)s2)cc(N2CCN(CCO)CC2)n1 [Dasatinib] (partner 0.075 µM)?
relative viability (LOU-NH91; first compound 0.005 µM): 0.542; relative viability (LOU-NH91; first compound 0.01581 µM): 0.555; relative viability (LOU-NH91; first compound 0.05 µM): 0.422; relative viability (LOU-NH91; first compound 0.1581 µM): 0.416; relative viability (LOU-NH91; first compound 0.5 µM): 0.398; relative viability (NCI-H3122; first compound 0.005 µM): 0.807; relative viability (NCI-H3122; first compound 0.01581 µM): 0.76; relative viability (NCI-H3122; first compound 0.05 µM): 0.789; relative viability (NCI-H3122; first compound 0.1581 µM): 0.349; relative viability (NCI-H3122; first compound 0.5 µM): 0.17; relative viability (NCI-H2085; first compound 0.005 µM): 0.202; relative viability (NCI-H2085; first compound 0.01581 µM): 0.263; relative viability (NCI-H2085; first compound 0.05 µM): 0.2; relative viability (NCI-H2085; first compound 0.1581 µM): 0.188; relative viability (NCI-H2085; first compound 0.5 µM): 0.2; relative viability (HCC-366; first compound 0.005 µM): 0.573; relative viability (HCC-366; first compound 0.01581 µM): 0.402; relative viability (HCC-366; first compound 0.05 µM): 0.424; relative viability (HCC-366; first compound 0.1581 µM): 0.148; relative viability (HCC-366; first compound 0.5 µM): 0.0563; relative viability (NCI-H1437; first compound 0.005 µM): 0.395; relative viability (NCI-H1437; first compound 0.01581 µM): 0.26; relative viability (NCI-H1437; first compound 0.05 µM): 0.228; relative viability (NCI-H1437; first compound 0.1581 µM): 0.142; relative viability (NCI-H1437; first compound 0.5 µM): 0.165; relative viability (LXF-289; first compound 0.005 µM): 0.221; relative viability (LXF-289; first compound 0.01581 µM): 0.202; relative viability (LXF-289; first compound 0.05 µM): 0.171; relative viability (LXF-289; first compound 0.1581 µM): 0.112; relative viability (LXF-289; first compound 0.5 µM): 0.0684; relative viability (NCI-H1623; first compound 0.005 µM): 0.479; relative viability (NCI-H1623; first compound 0.01581 µM): 0.449; relative viability (NCI-H1623; first compound 0.05 µM): 0.286; relative viability (NCI-H1623; first compound 0.1581 µM): 0.471; relative viability (NCI-H1623; first compound 0.5 µM): 0.291

Which results are given for `CC(=O)O[C@@]12CO[C@@H]1C[C@H](O)[C@@]1(C)C(=O)[C@H](O)C3=C(C)[C@@H](OC(=O)[C@H](O)[C@@H](NC(=O)OC(C)(C)C)c4ccccc4)C[C@@](O)([C@@H](OC(=O)c4ccccc4)[C@H]21)C3(C)C` [Docetaxel] + CCNC(=O)c1noc(-c2cc(C(C)C)c(O)cc2O)c1-c1ccc(CN2CCOCC2)cc1 [Luminespib] (partner 0.01 µM)?
relative viability (LOU-NH91; first compound 0.0002 µM): 0.299; relative viability (LOU-NH91; first compound 0.000632 µM): 0.384; relative viability (LOU-NH91; first compound 0.002 µM): 0.299; relative viability (LOU-NH91; first compound 0.006325 µM): 0.266; relative viability (LOU-NH91; first compound 0.02 µM): 0.212; relative viability (NCI-H3122; first compound 0.0002 µM): 0.088; relative viability (NCI-H3122; first compound 0.000632 µM): 0.101; relative viability (NCI-H3122; first compound 0.002 µM): 0.104; relative viability (NCI-H3122; first compound 0.006325 µM): 0.0883; relative viability (NCI-H3122; first compound 0.02 µM): 0.115; relative viability (NCI-H2085; first compound 0.0002 µM): 0.378; relative viability (NCI-H2085; first compound 0.000632 µM): 0.454; relative viability (NCI-H2085; first compound 0.002 µM): 0.446; relative viability (NCI-H2085; first compound 0.006325 µM): 0.322; relative viability (NCI-H2085; first compound 0.02 µM): 0.341; relative viability (NCI-H1437; first compound 0.0002 µM): 1.07; relative viability (NCI-H1437; first compound 0.000632 µM): 1.09; relative viability (NCI-H1437; first compound 0.002 µM): 0.277; relative viability (NCI-H1437; first compound 0.006325 µM): 0.234; relative viability (NCI-H1437; first compound 0.02 µM): 0.167; relative viability (LXF-289; first compound 0.0002 µM): 0.683; relative viability (LXF-289; first compound 0.000632 µM): 0.694; relative viability (LXF-289; first compound 0.002 µM): 0.138; relative viability (LXF-289; first compound 0.006325 µM): 0.111; relative viability (LXF-289; first compound 0.02 µM): 0.0768; relative viability (HCC-44; first compound 0.0002 µM): 0.986; relative viability (HCC-44; first compound 0.000632 µM): 0.901; relative viability (HCC-44; first compound 0.002 µM): 0.35; relative viability (HCC-44; first compound 0.006325 µM): 0.289; relative viability (HCC-44; first compound 0.02 µM): 0.171; relative viability (NCI-H1623; first compound 0.0002 µM): 0.543; relative viability (NCI-H1623; first compound 0.000632 µM): 0.405; relative viability (NCI-H1623; first compound 0.002 µM): 0.455; relative viability (NCI-H1623; first compound 0.006325 µM): 0.353; relative viability (NCI-H1623; first compound 0.02 µM): 0.281
